Values of other authors, collected in patent publication US8907090B2, “Processes for preparing different forms of (S)-(+)-Clopidogrel bisulfate” (Cadila Healthcare Limited, priority 2003, dated 2014).

Assays:
platelet aggregation = details: comparison of enantiomers
[1] = comparison of enantiomers

Row | Compound | antiaggregant platelet activity (platelet aggregation) | tolerance [1]
1 | COC(=O)C(c1ccccc1Cl)N1CCc2sccc2C1 (single isomer, unassigned) [levorotatory enantiomer] | less active | less tolerated
2 | COC(=O)[C@H](c1ccccc1Cl)N1CCc2sccc2C1 (single isomer, unassigned) [dextrorotatory enantiomer] | excellent antiaggregant platelet activity | –
